Values after ≈ are worked out from the molar mass of the structure shown.
Assays:
[1] = Compound solubility in water; details: for solubility: Compound Solubility in Water
[2] = target: T1, glucocerebrosidase (Gcase) (Homo sapiens, UniProt P04062); test: Glucocerebrosidase (Gcase) activation assay, 4-methylumbelliferyl-beta-D-glucopyranoside substrate, fluorescence readout; type: biochemical; details: for activation at 0.1 µM / Percent Gcase Activation, 0.1 μM Test Compound: test compound at 0.1 μM; for activation at 0.1 µM: read-out: Percent Gcase Activation, 0.1 μM Test Compound; for activation at 1 µM / Percent Gcase Activation, 1 μM Test Compound: test compound at 1.0 μM; for activation at 1 µM: read-out: Percent Gcase Activation, 1 μM Test Compound
T1 construct: micellar solution containing 10 nM GCase and 100 nM saposin C
T1 sequence (P04062 40-536): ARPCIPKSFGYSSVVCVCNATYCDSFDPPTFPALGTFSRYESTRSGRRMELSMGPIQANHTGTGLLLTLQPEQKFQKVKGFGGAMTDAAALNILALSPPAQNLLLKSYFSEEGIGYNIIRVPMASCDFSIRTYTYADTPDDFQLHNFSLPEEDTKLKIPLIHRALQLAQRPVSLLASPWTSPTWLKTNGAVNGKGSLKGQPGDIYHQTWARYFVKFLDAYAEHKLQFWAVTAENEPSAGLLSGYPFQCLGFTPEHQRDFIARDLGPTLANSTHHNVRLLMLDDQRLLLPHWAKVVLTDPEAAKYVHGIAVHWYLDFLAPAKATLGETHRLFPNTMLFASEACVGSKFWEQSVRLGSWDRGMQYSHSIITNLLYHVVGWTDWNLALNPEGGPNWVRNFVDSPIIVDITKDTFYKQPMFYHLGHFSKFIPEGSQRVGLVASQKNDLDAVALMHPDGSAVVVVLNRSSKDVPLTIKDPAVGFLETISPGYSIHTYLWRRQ
Description: The ability of exemplary compounds to activate glucocerebrosidase (Gcase) was measured.
A 484 μL aliquot of a 1.0 mg/mL solution of phosphatidylserine (PS) (Sigma P7769) in chloroform was evaporated under a stream of nitrogen for 1 hour. The lipid film was dissolved over 4 minutes of vigorous vortexing in 40 mL of 176 mM K2HPO4/50 mM citric acid (pH 4.7) containing 7.5 μL of triton X-100, resulting in a mixed micellar preparation with a composition of 0.32 mM triton and 0.37 mol % PS. 4-Methylumbelliferyl-beta-D-glucopyranoside (ACROS-337025000) was dissolved in the micellar solution to a final concentration of 2 mM for use as the reaction substrate.
Test compounds were diluted to the desired concentrations with dimethylsulfoxide (DMSO) from 10 mM stocks, and 0.41 μL of the DMSO compound mixture was added to 100 μL of micellar solution containing 10 nM GCase and 100 nM saposin C (Enzo ALX-201-262-C050). Pre-incubation was allowed to occur for 30 minutes at room temperature, after which the reaction was initiated by combining 25 μL of substrate solution with 25 μL of compound/GCase/saposin mixture. The reaction proceeded for 15 minutes at room temperature and was stopped by adding 150 μL of 1M glycine, pH 12.5. The endpoint of the reaction was monitored by measuring fluorescence intensity (excitation: 365 nm; emission: 440 nm) on a SpectraMax i3 instrument (Molecular Devices). Test compounds were screened at 1.0 and 0.1 μM final concentration, and subsequent 8-point dose response curves were obtained using 3-fold dilutions from a maximum final concentration of 5 μM.

SMILES	solubility ([1]; water) [µg/mL]	activation at 0.1 µM [2] [%]	activation at 1 µM [2] [%]	solubility ([1]; water, in water) [µg/mL]	Compound Solubility in Water ([1]; water) [µg/mL]	Percent Gcase Activation, 0.1 μM Test Compound [2]	Percent Gcase Activation, 1 μM Test Compound [2]	Compound Solubility in Water ([1]; in water) [µg/mL]
CCCCCO[C@H]1CC[C@H](NC(=O)c2ccn3c(C)cc(C)nc23)C1 [III-178]	9.2 (≈ 26.8 µM)	> 20	> 60					
COCCOc1ccc2c(c1)C(NC(=O)c1ccn3c(C)cc(C)nc13)CCC2 (centres unmarked) [III-104]	5.8 (≈ 14.7 µM)	10 to 20	> 60					
Cc1cc(C)n2ccc(C(=O)Nc3ccc4nc(C)sc4c3)c2n1 [III-88]	0.1 (≈ 0.297 µM)	10 to 20	> 60					
CO[C@H]1CC[C@H](C(C)(C)NC(=O)c2ccn3c(C)cc(Cl)nc23)CC1 [III-75]	5.3 (≈ 14.6 µM)	10 to 20	> 60					
Cc1cc(O)n2ccc(C(=O)Nc3ccc(-c4cocn4)cc3)c2n1 [III-55]	1.8 (≈ 5.38 µM)	< 10	< 30					
Cc1cc(C)n2ccc(C(=O)Nc3ccc4c(c3)C(Oc3ccccn3)CC4)c2n1 (centres unmarked) [III-121]	0.2 (≈ 0.502 µM)	< 10	30 to 60					
CCCCO[C@H]1CC[C@H](NC(=O)c2ccn3c(COC)cc(C(F)F)nc23)CC1 [III-34]	1.8 (≈ 4.4 µM)	10 to 20	> 60					
Cc1cc(C)n2ccc(C(=O)NC3CC=C(c4cccs4)CC3)c2n1 (centres unmarked) [III-186]	0.2 (≈ 0.569 µM)	> 20	> 60					
Cc1cc(C(F)(F)F)n2ccc(C(=O)NC3CCCc4ccccc43)c2n1 (centres unmarked) [III-253]		< 10	30 to 60	0.6 (≈ 1.61 µM)				
Cc1cc(C)n2ccc(C(=O)Nc3ccc(OCCCCN)cc3)c2n1 [III-19]	17.2 (≈ 48.8 µM)	< 10	< 30					
C#CCCCOC1CCC(NC(=O)c2ccn3c(C)cc(C)nc23)C1 (centres unmarked) [III-272]		< 10	> 60	15.8 (≈ 46.5 µM)				
Cc1cc(C)n2ccc(C(=O)N[C@H]3CCc4ccccc43)c2n1 [III-217]		> 20	> 60	0.2 (≈ 0.655 µM)				
CCOCCOC1CCC(NC(=O)c2ccn3c(C)cc(C)nc23)c2ccccc21 (centres unmarked) [III-231]		10 to 20	> 60	20.1 (≈ 49.3 µM)				
Cc1cc(C)n2ccc(C(=O)Nc3ccc4c(c3)CCC4)c2n1 [III-13]					0.06	*** (greater than 20% Gcase activation)	+++ (Gcase activation greater than 60%)	
CCCCCO[C@H]1CC[C@H](NC(=O)c2ccn3c(COC)cc(COC)nc23)CC1 [III-154]	10.6 (≈ 25.4 µM)	> 20	> 60					
COC1CC(NC(=O)c2ccn3c(C)cc(C)nc23)c2ccccc21 (centres unmarked) [III-285]		10 to 20	> 60	23.8 (≈ 71 µM)				
CC(C)c1ccnc2c(C(=O)N[C@H]3CCCc4ccccc43)ccn12 [III-162]	1 (≈ 3 µM)	< 10	> 60					
CCCCCO[C@H]1CC[C@@H](NC(=O)c2ccn3c(C)cc(C)nc23)CC1 [III-202]		> 20	> 60	3.6 (≈ 10.1 µM)				
Cc1cc(C)n2ccc(C(=O)NC3CCC(c4ncco4)CC3)c2n1 (centres unmarked) [III-246]						* (less than 10% Gcase activation)	+ (less than 30% Gcase activation)	20.3

SMILES	solubility ([1]; water) [µg/mL]	activation at 0.1 µM [2] [%]	activation at 1 µM [2] [%]	solubility ([1]; water, in water) [µg/mL]	Compound Solubility in Water ([1]; water) [µg/mL]	Percent Gcase Activation, 0.1 μM Test Compound [2]	Percent Gcase Activation, 1 μM Test Compound [2]	Compound Solubility in Water ([1]; in water) [µg/mL]
Cc1ccnc2c(C(=O)NC3(C)CCCc4ccccc43)ccn12 (centres unmarked) [III-262]		> 20	> 60	0.9 (≈ 2.82 µM)				
Cc1cc(C)n2ccc(C(=O)NC3CCOc4c(F)cccc43)c2n1 (centres unmarked) [III-224]		> 20	> 60	1.5 (≈ 4.42 µM)				
Cc1cc(Br)n2ccc(C(=O)Nc3ccc(-c4cocn4)cc3)c2n1 [III-41]	0.02 (≈ 0.0503 µM)	< 10	30 to 60					
Cc1cc(C)n2ccc(C(=O)Nc3ccc(-c4ncco4)cc3C)c2n1 [III-150]	0.1 (≈ 0.289 µM)	> 20	> 60					
CC[C@@H](C)O[C@H]1CC[C@H](NC(=O)c2ccn3c(C)cc(C)nc23)CC1 [III-241]		10 to 20	> 60	11 (≈ 32 µM)				
Cc1cc(Cl)nc2c(C(=O)Nc3ccc(-c4cocn4)cc3)ccn12 [III-38]	0.3 (≈ 0.85 µM)	> 20	30 to 60					
Cc1cc(C)n2ccc(C(=O)NC3CCC4(CCCCO4)C3)c2n1 (centres unmarked) [III-85]					21.3	* (less than 10% Gcase activation)		
Cc1cc(C)n2ccc(C(=O)NC3(C)CCOc4cc(F)c(F)cc43)c2n1 (centres unmarked) [III-174]	3.8 (≈ 10.2 µM)	> 20	> 60					
CCCO[C@H]1CC[C@H](NC(=O)c2ccn3c(C)cc(Cl)nc23)CC1 [III-74]	10.8 (≈ 30.9 µM)	> 20	> 60					
Cc1cc(C)n2ccc(C(=O)NC3CCC4(CCCO4)C3)c2n1 (centres unmarked) [III-146]	25.4 (≈ 81 µM)	< 10	< 30					
COCCOCc1cc(C)n2ccc(C(=O)N[C@H]3CCCc4ccccc43)c2n1 [III-43]	25.2 (≈ 64 µM)	10 to 20	> 60					
C#Cc1ccc(C(C)(C)NC(=O)c2ccn3c(COC)cc(C)nc23)cc1 [III-62]	2.7 (≈ 7.47 µM)	> 20	> 60					
Cc1cc(C)n2ccc(C(=O)Nc3ccc(Cl)c(COc4cccnc4)c3)c2n1 [III-15]	< 0.1	> 20	> 60					
Cc1cc(C)n2ccc(C(=O)N[C@H]3CC[C@H](OC4CCC4)CC3)c2n1 [III-101]	8.5 (≈ 24.9 µM)	> 20	> 60					
Cc1cc(C(F)(F)F)nc2c(C(=O)Nc3ccc(-c4cocn4)cc3)ccn12 [III-252]		10 to 20	> 60	1.8 (≈ 4.66 µM)				
COc1cc(-c2cocn2)ccc1NC(=O)c1ccn2c(C)cc(C)nc12 [III-109]	0.1 (≈ 0.276 µM)	> 20	> 60					
Cc1cc(C)n2ccc(C(=O)NC3CCCC34CCCCO4)c2n1 (centres unmarked) [III-138]		10 to 20	> 60		33.7			
Cc1cc(C)n2ccc(C(=O)N[C@H]3CC[C@@H](OCC(C)(C)C)CC3)c2n1 [III-94]	1.8 (≈ 5.03 µM)	> 20	> 60					
